Laboratory results reported in US20100092479A1, “Compositions and methods for treatment of viral diseases” (CombinatoRx (Singapore) Pte. Ltd., priority 2008, published 2010).

System: HCV RNA
Assay: HCV RNA copy number by RT-qPCR in Huh-luc/neo-ET cells
Type: cell-based
Details: 72 hr treatment
Protocol: Measurement of HCV RNA levels in response to drug were carried out by first seeding Huh-luc/neo-ET cells in 100 μl of medium at 7,500 cells per well for 72 hour drug treatments and allowed to adhere overnight for approximately 20 hours. Compounds were added at a 1:1000 dilution in duplicate and added to cells in 3 separate experiments. Total RNA was harvested using an RNeasy 96-well kit (Qiagen) according to the manufacturer's protocol and quantified using the Quant-iT™ RiboGreen® RNA Reagent (Invitrogen). Purified RNA (4 μl) was added to TaqMan reactions containing 10 μl of QuantiTect Probe RT-PCR Master Mix (Qiagen) and 0.2 μL, of QuantiTect RT Mix. […] All 20 μl reactions were assayed in an Eppy Twin-Tec skirted PCR plate (Eppendorf) and subjected to quantitative one-step RT-PCR with an Eppendorf Realplex4 qPCR machine (Eppendorf) using the following program: 50° C. for 30 min, 95° C. for 15 min, and 40 cycles of 95° C. for 15 s followed by 60° C. for 1 min 15 s. Absolute quantification of HCV RNA copy number was determined by comparing PCR signals to a standard curve generated from dilutions of a 160 by PCR-amplified fragment of the 5′NTR of HCV. […] All qPCR samples quantified by comparison to the standard curve were subsequently normalized to total RNA per sample to account for variations in sample purification and preparation steps. […]

With `C=C(CC[C@]12O[C@H](C(=O)O)[C@@](O)(C(=O)O)[C@](C(=O)O)(O1)[C@H](OC(=O)/C=C/[C@@H](C)C[C@@H](C)CC)[C@H]2O)[C@@H](OC(C)=O)[C@H](C)Cc1ccccc1` [Squalestatin] the “effect on HCV RNA replication (viral RNA copy number normalized to total RNA)” value was “proviral effects”.
